Substitutions are numbered along the chain they refer to.
How the values were obtained:
hTAS2R16 [1] = target: T1, hTAS2R16 (Homo sapiens, UniProt Q9NYV7); conditions: in the presence of 3 mM salicin; read-out: reported IC50; cited from earlier work
T1 construct: expressed in transfected cells; host or cells: HEK293T
T1 sequence (Q9NYV7 1-291): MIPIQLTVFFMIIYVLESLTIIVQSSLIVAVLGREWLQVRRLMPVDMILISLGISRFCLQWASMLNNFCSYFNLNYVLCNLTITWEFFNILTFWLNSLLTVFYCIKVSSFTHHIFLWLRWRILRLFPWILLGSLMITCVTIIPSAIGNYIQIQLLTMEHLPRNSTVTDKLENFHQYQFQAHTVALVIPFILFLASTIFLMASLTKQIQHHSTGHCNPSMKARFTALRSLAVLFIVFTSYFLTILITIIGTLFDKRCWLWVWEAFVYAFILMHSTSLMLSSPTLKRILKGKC

hTAS2R16 N96T = target: T2, hTAS2R16 N96T (Homo sapiens, UniProt Q9NYV7, N96T); experiment: Cellular Ca2+ response, cell-based assay in HEK293T cells expressing probenecid-insensitive mutant hTAS2R16 N96T; conditions: Table 3; pretreatment with sample 0.3 mM
T2 construct: expressed in transfected cells; host or cells: HEK293T
T2 sequence (Q9NYV7 1-291 N96T): T1 sequence (Q9NYV7 1-291) with N96T
Procedure: (§1) HEK293T cells were purchased from American Type Culture Collection (ATCC; Manassas, VA, USA) and cultured as described previously. The plasmids hTAS2R16 and G16αgust44 were constructed as described previously. G16αgust44 and hTAS2R16 were cloned into a cytomegalovirus promoter-based vector and expressed constitutively. Point mutants of N96T and P44T on hTAS2R16 clone and DNA sequencings were performed by Macrogen (Geumcheon-gu, Seoul, Korea). The hTAS2R16 or point mutant expression plasmid was co-transfected with G16αgust44 expression plasmid (4:1) into HEK293T cells using Lipofectamine 2000 (Invitrogen, Carlsbad, CA, USA).
(§2) The umami substances-induced changes in the cytosolic Ca^2+ concentration were measured using a FlexStation III microplate reader (Molecular Devices, Sunnyvale, CA, USA). HEK293T cells transfected with hTAS2R16 were seeded onto 96-well black-wall CellBind surface plates (Corning, NY, USA) for 18–24 h before use. […] The cells were incubated in the dark for 30 min at 37 °C, and then for 15 min at 27 °C in assay buffer consisting of Calcium-4 (FLIPR Calcium 4 Assay Kit, Molecular Devices) and probenecid or the umami compounds. Following treatment, the fluorescence intensity (excitation, 486 nm; emission, 525 nm) of the cell was measured. The relative changes in cell Ca^2+ were plotted as ΔF/F0 on the y-axis, where ΔF is the change in Calcium-4 fluorescence intensity at each time point and F0 is the fluorescence intensity before treatment. The relative response induced by 10 mM salicin was assigned a value of 100.

hTAS2R16 [2] = target: T1, hTAS2R16; experiment: Cellular Ca2+ response, cell-based assay (Calcium-4, FlexStation III) in HEK293T cells co-expressing wild-type hTAS2R16 and G16αgust44; conditions: for Maximal Response of salicin: Table 1
Procedure: as §1, §2

hTAS2R16 [3] = target: T1, hTAS2R16; experiment: Ca2+ response of hTAS2R16-expressing HEK293T cells to bitter ligands in absence and presence of umami substances (Figure 1; fura-2 F340/F380 imaging / cell-based assay); conditions: MSG 80 mM, IMP 20 mM, L-theanine 80 mM, Glu-Glu 6 mM, Gly-Gly 6 mM
Procedure: We first verified if non-peptide umami substances affect the downstream signaling mechanism, such as changes in intracellular Ca^2+ of the human bitter taste receptor. […] The increase in fluorescence intensity ratio (F340/F380) with 10 mM salicin was expressed as 100. […] In addition to salicin, hTAS2R16 also recognizes bitter sugars such as phenyl β-D-glucopyranoside and arbutin, a glycosylated hydroquinone extracted from the bearberry plant in the genus Arctostaphylos.
(A) Chemical structures of tested compounds. Summarized data (B) and representative traces (C) showing responses of HEK293T cells co-expressing hTAS2R16 and Gα16gust44 to 10 mM salicin in the absence and presence of umami substances in a cell-based assay. (D,E) Representative ratiometric images of fura-2-loaded hTAS2R16-expressing cells in response to the other ligands, 5 mM arbutin (D) or phenyl β-D-glucopyranoside (E), in the presence of umami substances. The data were normalized as percentages to the maximal signal obtained with the ligands. The color scale indicates the F340/F380 ratio. Scale bar: 11.04 μm. Data are presented as means ± standard error of the mean (SEM) of at least three separate experiments. * p < 0.05, ** p < 0.01, and *** p < 0.001 vs. the 0 mM sample group by Student’s t-test.
as §2, with “Following treatment, the fluorescence intensity (excitation, 486 nm; emission, 525 nm) of the cell was measured.” left out
Cells were seeded onto 96-well black-wall imaging plates (BD Falcon Labware) for 18–26 h prior to their use in an experiment. […] The cells were rinsed with the buffer, incubated in probenecid or sample for 30 min, and then treated with solution containing the ligand. The Fura-2AM-induced fluorescence intensity (excitation at 340 and 380 nm) was measured at emission wavelength of 510 nm using a computer-controlled filter changer (Lambda DG4; Sutter, San Rafael, CA, USA), an Andor Luca CCD camera (Andor Technology, Belfast, UK), and an inverted fluorescence microscope (IX-71; Olympus, Tokyo, Japan). Images were obtained at 3-s intervals and analyzed using MetaFluor software (Molecular Devices, Sunnyvale, CA, USA).

hTAS2R16 P44T = target: T3, hTAS2R16 P44T (Homo sapiens, UniProt Q9NYV7, P44T); experiment: Cellular Ca2+ response, cell-based assay in HEK293T cells expressing probenecid-insensitive mutant hTAS2R16 P44T
T3 construct: expressed in transfected cells; host or cells: HEK293T
T3 sequence (Q9NYV7 1-291 P44T): T1 sequence (Q9NYV7 1-291) with P44T
Procedure: as §1, §2

[4] = target: hTAS2R16 (human bitter taste receptor, type 2 taste receptor 16), wild type (human) (UniProt Q9NYV7)
[5] = target: hTAS2R16 (human bitter taste receptor, type 2 taste receptor 16), wild type (human) (UniProt Q9NYV7); remark: listed apart in the source
hTAS2R16 N96T (human) = hTAS2R16 N96T (human) (UniProt Q9NYV7)
hTAS2R16 P44T (human) = hTAS2R16 P44T (human) (UniProt Q9NYV7)
[6] = Table 3, pretreatment with sample 0.3 mM

Row | Maximal Response of salicin, N96T (hTAS2R16 N96T) | Maximal Response of salicin (hTAS2R16 [2]; pretreatment with sample 0.1 mM) | Maximal Response of salicin (hTAS2R16 [2]; pretreatment with sample 0.3 mM) | Maximal Response of salicin (hTAS2R16 [2]; pretreatment with sample 1 mM) | Maximal Response of salicin, WT (hTAS2R16 [2]; [6]) | mechanism of antagonism at hTAS2R16 (hTAS2R16 [2]; from salicin concentration–response curves at graded antagonist concentrations) | attenuation of salicin response by pretreatment, WT receptor (hTAS2R16 [2]; salicin 0.003–30 mM, probenecid 0.3 mM, L-theanine 80 mM) | inhibition of Ca2+ response to arbutin (hTAS2R16 [3]; 5 mM arbutin) | inhibition of Ca2+ response to phenyl β-D-glucopyranoside (hTAS2R16 [3]; phenyl β-D-glucopyranoside) | Maximal Response of salicin, P44T (hTAS2R16 P44T; [6]) | attenuation of salicin response by pretreatment, P44T mutant (hTAS2R16 P44T; salicin 0.003–30 mM, probenecid 0.3 mM, MSG 80 mM, L-theanine 80 mM) | maximal Ca2+ response (ΔF/F0) to salicin (0-30 mM) in cells expressing hTAS2R16 with Glu-Glu at 0, 1, 3, 6 and 10 mM (0.54 at 0 mM); value at 10 mM Glu-Glu [4] | maximal Ca2+ response (ΔF/F0) to salicin in cells expressing wild-type hTAS2R16 after pretreatment with 6 mM Glu-Glu (0.54 without Glu-Glu) [5] | maximal Ca2+ response (ΔF/F0) to salicin in cells expressing hTAS2R16 N96T after pretreatment with 6 mM Glu-Glu (0.61 without Glu-Glu); the text says the inhibition by Glu-Glu is lost in this mutant (hTAS2R16 N96T (human)) | maximal Ca2+ response (ΔF/F0) to salicin in cells expressing hTAS2R16 P44T after pretreatment with 6 mM Glu-Glu (0.62 without Glu-Glu) (hTAS2R16 P44T (human)) | Compound | IC50 (hTAS2R16 [1])
1 | 0.68 ΔF/F0 | 0.47 ΔF/F0 | 0.23 ΔF/F0 | 0.07 ΔF/F0 | 0.23 ΔF/F0 | full insurmountable antagonism | significant attenuation | inhibited | inhibited | 0.58 ΔF/F0 | not in cells expressing the two mutants | – | – | – | – | CCCN(CCC)S(=O)(=O)c1ccc(C(=O)O)cc1 [Probenecid, ρ-(dipropylsulfamoyl)benzoic acid] | 290 µM
2 | – | – | – | – | – | – | – | – | – | – | – | 0.33 ΔF/F0 | 0.4 ΔF/F0 | 0.65 ΔF/F0 | 0.42 ΔF/F0 | Glu-Glu (peptide) | –

From article PMC7582725, “Suppression of hTAS2R16 Signaling by Umami Substances” (International Journal of Molecular Sciences, 2020)
